Assay results as given in paper PMC8222713, “Variation of Two S3b Residues in KV4.1–4.3 Channels Underlies Their Different Modulations by Spider Toxin κ-LhTx-1” (Frontiers in Pharmacology, 2021).
Where a SMILES comes first, the peptide text is derived from it. Bridges are numbered along the chain shown (N, C = ends).

Assays:
KV4.2/D281K mutant = experiment: Whole-cell patch clamp, KV4.2/D281K (with hKChIP1) in CHO-K1 cells; assay type: cell-based, rat
Protocol: (§1) The cDNA of hKV1.1, hKV1.3, rKV1.4, hKV1.5, rKV2.1, hKV3.1–3.4, mKV4.1, rKV4.2, and rKV4.3 were subcloned in the eukaryotic expression vector pCDNA3.1 or pCMV-blank. Channel mutants were made by a site-directed mutation method. Briefly, a pair of oppositely directed primers with 15 bp overlap at their 5′ ends and the designed mutation site were used to amplify the parental channel plasmid, then the PCR mix was treated with DpnI to remove the template. 10 μL digestion mix was directly used to transform 100 μL DH5α chemical competent cells. The correct mutation made by this procedure was finally confirmed by DNA sequencing. CHO-K1 cells (ATCC® CCL-61™) were grown in DMEM-F12 mixed medium (1:1) supplemented with 10% FBS and maintained in standard conditions (saturated humidity, 37°C, 5% CO2). Channel plasmid was co-transfected with pEGFP-N1 (encodes the green fluoresence protein) into CHO-K1 cells using lipofectamine 2000 following the manufacturer’s instructions. 4–6 h after transfection, cells were seeded onto poly-lysine (PLL) coated coverslips, and 24–36 h later, transfected cells were ready for patch-clamp analysis. It should be note that KV4.2 and its mutants were also co-expressed with hKChIP1 to promote their functional expressions.
(§2) Whole-cell patch clamp recording was performed in an electrophysiology platform equipped with MultiClamp 700B amplifier and Axon Digidata 1550 AD/DA convertor (Axon Instruments, Irvine, CA, United States). Data were acquired using the pClamp software (Axon Instruments, Irvine, CA, United States). All experiments were performed at room temperature. The bath solution contains (in mM): 140 NaCl, 5 KCl, 1 MgCl2, 2 CaCl2, 10 glucose, and 10 HEPES (pH = 7.3). The pipette solution contains (in mM): 140 KCl, 2.5 MgCl2, 11 EGTA, and 10 HEPES (pH = 7.3). Series resistance was kept below 10 MΩ and compensated to 80%. The concentration–response curves were fitted by a Hill logistic equation to estimate the potency (IC50) of the toxin. The whole cell conductance (G) at each depolarizing voltage (V) was determined using the equation: G = I/(V−Vrev), where I and Vrev represents the current amplitude and the reversal potential, respectively. In the present study, Vrev for K^+ current is determined to be −85.61 mV using the Nernst equation. G-V curve was obtained by plotting the normalized G as a function of V and fitted by the Boltzmann equation: y = 1/{1 + exp [(Va−V)/K]}, in which Va, V, and K represents half-maximum activation voltage, test voltage and slope factor, respectively. The steady-state fast inactivation of KV4 channels was measured using a classical two-pulses protocol: cell was held at −120 mV, and a train of conditional voltages (−120–40 mV, in 10 mV increment, 1,000 ms) were applied to induce channel inactivation, followed by a +60 mV test pulse (300 ms) to assess the proportion of non-inactivated channels; the sweep interval was set to 10 s. Currents at the test pulse (I) were normalized to the maximum value (Imax) and plotted as a function of the conditional voltage (V), the curve was fitted by the Boltzmann equation: I/Imax = A + (1−A)/{1 + exp [(V−Vh)/K]}, where Vh is the half-maximum inactivation voltage, A represents the minimum channel availability, and K is the slope factor. Gating currents of KV4.1–4.3 channels were measured as previously reported ([Tilley et al., 2019]). Briefly, the ionic pore currents were abolished by replacing K^+ with NMDG^+ in the pipette solution, and 10 µM Cs^+ was present in the bath solution to occupy the selectivity filter of KV channels to prevent decay of the gating currents during recording.
(§3) Data were presented as MEAN ± SEM, n represents the number of separate experimental cells. Data were analyzed using the software Clampfit 10.5 (Axon Instruments, Irvine, CA, United States), Graphpad Prism 5.01 (GraphPad Software, La Jolla, CA, United States) and Excel 2010 (Microsoft Corporation, Redmond, WA, United States). […]

KV4.1/P282T mutant = experiment: Whole-cell patch clamp, KV4.1/P282T in CHO-K1 cells; assay type: cell-based, mouse
Protocol: as §1, §2, §3

KV4.1/279LF/AA mutant = experiment: Whole-cell patch clamp, KV4.1/279LF/AA in CHO-K1 cells; assay type: cell-based, mouse; details: KV4.1/279LF/AA at Va depolarizing voltage, n = 5–7
Protocol: The cDNA of hKV1.1, hKV1.3, rKV1.4, hKV1.5, rKV2.1, hKV3.1–3.4, mKV4.1, rKV4.2, and rKV4.3 were subcloned in the eukaryotic expression vector pCDNA3.1 or pCMV-blank. Channel mutants were made by a site-directed mutation method. Briefly, a pair of oppositely directed primers with 15 bp overlap at their 5′ ends and the designed mutation site were used to amplify the parental channel plasmid, then the PCR mix was treated with DpnI to remove the template. 10 μL digestion mix was directly used to transform 100 μL DH5α chemical competent cells. The correct mutation made by this procedure was finally confirmed by DNA sequencing. […] 4–6 h after transfection, cells were seeded onto poly-lysine (PLL) coated coverslips, and 24–36 h later, transfected cells were ready for patch-clamp analysis. […]
Whole-cell patch clamp recording was performed in an electrophysiology platform equipped with MultiClamp 700B amplifier and Axon Digidata 1550 AD/DA convertor (Axon Instruments, Irvine, CA, United States). […] The whole cell conductance (G) at each depolarizing voltage (V) was determined using the equation: G = I/(V−Vrev), where I and Vrev represents the current amplitude and the reversal potential, respectively. In the present study, Vrev for K^+ current is determined to be −85.61 mV using the Nernst equation. […] Gating currents of KV4.1–4.3 channels were measured as previously reported ([Tilley et al., 2019]). […]

[1] = 10 μM κ-LhTx-1, G-V, mean ± SEM, n = 6
[2] = 10 μM κ-LhTx-1, two-pulse protocol, mean ± SEM, n = 6
[3] = Va shift by 10 μM κ-LhTx-1 vs control, mean ± SEM
[4] = Vh shift by 10 μM κ-LhTx-1 vs control, mean ± SEM

CC[C@H](C)[C@@H]1NC(=O)[C@H](CCC(N)=O)NC(=O)[C@@H]2CSSC[C@@H]3NC(=O)[C@H](CC(C)C)NC(=O)[C@H](CC(N)=O)NC(=O)[C@H](CCSC)NC(=O)[C@H](Cc4c[nH]c5ccccc45)NC(=O)[C@H](CO)NC(=O)[C@H](C)NC(=O)[C@@H](NC(=O)[C@H](CCC(=O)O)NC(=O)[C@H](CCC(N)=O)NC(=O)[C@H](C)NC(=O)[C@H](CC(=O)O)NC(=O)[C@@H](N)CCC(=O)O)CSSC[C@H](NC(=O)[C@H](CSSC[C@@H](C(=O)N[C@@H](CCCCN)C(=O)N[C@@H](Cc4ccc(O)cc4)C(=O)N[C@@H](CCCCN)C(=O)N[C@@H](CC(C)C)C(N)=O)NC(=O)[C@H](Cc4c[nH]c5ccccc45)NC1=O)NC(=O)[C@H](CCCCN)NC(=O)[C@H](CCCCN)NC(=O)[C@H](CCC(=O)O)NC(=O)CNC3=O)C(=O)N[C@@H](CCC(=O)O)C(=O)NCC(=O)N[C@@H](Cc1ccc(O)cc1)C(=O)N[C@@H](C(C)C)C(=O)N2 [κ-LhTx-1] (H-EDAQECASWMNLCGEKKCCEGYVCQIWCKYKL-NH2; disulfide 6-19, 13-24, 18-28 (inferred); N-terminus and C-terminus assumed)
Va (steady-state activation) (KV4.2/D281K mutant; [1]): 61.96 ± 1.96 mV | k, slope factor (steady-state activation) (KV4.2/D281K mutant; [1]): 18.73 ± 0.70 mV | Vh (steady-state inactivation) (KV4.2/D281K mutant; [2]): -27.43 ± 2.53 mV | k, slope factor (steady-state inactivation) (KV4.2/D281K mutant; [2]): 15.24 ± 1.42 mV | voltage-dependence of inhibition vs parental KV4.2 (KV4.2/D281K mutant; 10 μM, still greater than in KV4.1): much less voltage-dependence | ∆Va (steady-state activation) (KV4.2/D281K mutant; [3]): 68.10 ± 2.92 mV | ∆Vh (steady-state inactivation) (KV4.2/D281K mutant; [4]): 33.23 ± 2.95 mV | Va (steady-state activation) (KV4.1/P282T mutant; [1]): 52.55 ± 1.38 mV | k, slope factor (steady-state activation) (KV4.1/P282T mutant; [1]): 18.09 ± 0.43 mV | Vh (steady-state inactivation) (KV4.1/P282T mutant; [2]): -29.12 ± 1.84 mV | k, slope factor (steady-state inactivation) (KV4.1/P282T mutant; [2]): 10.73 ± 0.41 mV | ∆Va and inhi%(min) vs wild-type KV4.1 (KV4.1/P282T mutant; 10 μM, close to values of KV4.2/KV4.3): significantly reduced compared with those for KV4.1 | ∆Va (steady-state activation) (KV4.1/P282T mutant; [3]): 52.58 ± 1.86 mV | ∆Vh (steady-state inactivation) (KV4.1/P282T mutant; [4]): 26.75 ± 2.85 mV | effect of mutation on toxin inhibition (KV4.1/279LF/AA mutant): profoundly weakened the effect
